This is an account of results in patent US7495002B2, “3-methyl-7-butinyl-xanthines, the preparation thereof and their use as pharmaceutical compositions” (Boehringer Ingelheim International GmbH, priority 2004, dated 2009).

Each structure is given as a SMILES string.

One may read the IC50 as the point on the concentration scale where inhibition reaches its midpoint.

One series has as its system rats. Description: Tolerability in rats after oral administration. It counts as in vivo. To be noted: oral administration of 10 mg/kg.
Regarding `CC#CCn1c(N(C)C[C@H](C)N)nc2c1c(=O)n(Cc1nc(C)c3ccccc3n1)c(=O)n2C` [Example 2(4), 1-[(4-methyl-quinazolin-2-yl)methyl]-3-methyl-7-(2-butyn-1-yl)-8-[(S)-(2-amino-propyl)-methylamino]-xanthine], the toxic side effects result is “no toxic side effects could be detected”.

For a further series, the target named is T1, DPP-IV (Homo sapiens, UniProt P27487).
T1 construct: an extract of the human colon carcinoma cell line Caco-2 is used as the DPP IV source; endogenous in cells; host or cells: Caco-2 (human colon carcinoma), differentiated to induce DPP-IV expression; Nonidet-P40 solubilised extract
T1 sequence (P27487 whole entry): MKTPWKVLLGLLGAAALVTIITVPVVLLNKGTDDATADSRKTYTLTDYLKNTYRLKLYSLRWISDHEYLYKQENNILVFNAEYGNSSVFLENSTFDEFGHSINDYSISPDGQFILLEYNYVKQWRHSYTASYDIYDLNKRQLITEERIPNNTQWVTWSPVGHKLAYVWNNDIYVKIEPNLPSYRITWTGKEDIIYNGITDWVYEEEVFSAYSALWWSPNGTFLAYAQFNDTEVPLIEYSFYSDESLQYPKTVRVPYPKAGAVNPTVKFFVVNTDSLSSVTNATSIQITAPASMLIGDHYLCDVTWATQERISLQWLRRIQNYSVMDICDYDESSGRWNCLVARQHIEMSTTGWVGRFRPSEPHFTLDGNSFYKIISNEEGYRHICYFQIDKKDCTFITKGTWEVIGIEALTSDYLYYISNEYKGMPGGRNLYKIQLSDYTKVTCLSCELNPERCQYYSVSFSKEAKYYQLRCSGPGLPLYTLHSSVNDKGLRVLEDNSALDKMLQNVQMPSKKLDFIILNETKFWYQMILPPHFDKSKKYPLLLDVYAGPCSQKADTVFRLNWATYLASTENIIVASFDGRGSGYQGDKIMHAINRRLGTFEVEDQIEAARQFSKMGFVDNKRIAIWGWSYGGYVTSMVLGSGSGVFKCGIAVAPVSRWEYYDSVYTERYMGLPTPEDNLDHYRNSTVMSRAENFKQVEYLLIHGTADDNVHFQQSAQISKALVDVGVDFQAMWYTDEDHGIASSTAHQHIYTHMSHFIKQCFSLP
Description: DPP-IV assay with extract of Caco-2 cells as DPP IV source, AFC substrate, fluorescence. The class given is biochemical. To be noted: extract of human colon carcinoma cell line Caco-2; substrate 100 μM; 60 minutes at ambient temperature; read-out: DPP IV inhibition IC50. The method, then:
The differentiation of the cells in order to induce the DPP-IV expression was carried out in accordance with the description by Reiher et al. in an article entitled “Increased expression of intestinal cell line Caco-2”, which appeared in Proc. Natl. Acad. Sci. Vol. 90, pp. 5757-5761 (1993). The cell extract was obtained from cells solubilised in a buffer (10 mM Tris HCl, 0.15 M NaCl, 0.04 t.i.u. aprotinin, 0.5% Nonidet-P40, pH 8.0) by centrifugation at 35,000 g for 30 minutes at 4° C. (to remove cell debris).
The DPP-IV assay was carried out as follows:
50 μl of substrate solution (AFC; AFC is amido-4-trifluoromethylcoumarin), final concentration 100 μM, were placed in black microtitre plates. 20 μl of assay buffer (final concentrations 50 mM Tris HCl pH 7.8, 50 mM NaCl, 1% DMSO) was pipetted in. The reaction was started by the addition of 30 μl of solubilised Caco-2 protein (final concentration 0.14 μg of protein per well). The test substances under investigation were typically added prediluted to 20 μl, while the volume of assay buffer was then reduced accordingly. The reaction was carried out at ambient temperature, the incubation period was 60 minutes. Then the fluorescence was measured in a Victor 1420 Multilabel Counter, with the excitation wavelength at 405 nm and the emission wavelength at 535 nm. Dummy values (corresponding to 0% activity) were obtained in mixtures with no Caco-2 protein (volume replaced by assay buffer), control values (corresponding to 100% activity) were obtained in mixtures without any added substance. The potency of the test substances in question, expressed as IC50 values, were calculated from dosage/activity curves consisting of 11 measured points in each case.
Turning to `CC#CCn1c(N(C)C[C@H](C)N)nc2c1c(=O)n(Cc1ccc3nccnc3c1)c(=O)n2C` [2(10), 1-[(quinoxalin-6-yl)methyl]-3-methyl-7-(2-butyn-1-yl)-8-[(S)-(2-amino-propyl)-methylamino]-xanthine], the concentration for half-maximal inhibition (IC50) worked out at 3 nM.
Still for that read-out and setting: the value for `CC#CCn1c(N(C)C[C@H](C)N)nc2c1c(=O)n(Cc1nc(C)c3ccccc3n1)c(=O)n2C` [Example 2(4), 1-[(4-methyl-quinazolin-2-yl)methyl]-3-methyl-7-(2-butyn-1-yl)-8-[(S)-(2-amino-propyl)-methylamino]-xanthine] was 2 nM.
The same measure, in the same setting: to `CC#CCn1c(N(C)CC(C)(C)N)nc2c1c(=O)n(Cc1nc(C)c3ccccc3n1)c(=O)n2C` [2(1), 1-[(4-methyl-quinazolin-2-yl)methyl]-3-methyl-7-(2-butyn-1-yl)-8-[(2-amino-2-methyl-propyl)-methylamino]-xanthine] belongs 3 nM.
As to `CC#CCn1c(N(C)CCN)nc2c1c(=O)n(Cc1nc(C)c3ccccc3n1)c(=O)n2C` [1(1), 1-[(4-methyl-quinazolin-2-yl)methyl]-3-methyl-7-(2-butyn-1-yl)-8-[(2-amino-ethyl)-methylamino]-xanthine], the IC50 was found to be 2 nM.
The same measure, in the same setting: the value for `CC#CCn1c(N(C)C[C@H](C)N)nc2c1c(=O)n(Cc1ncc3ccccc3c1C#N)c(=O)n2C` [2(12), 1-[(4-cyano-isoquinolin-3-yl)methyl]-3-methyl-7-(2-butyn-1-yl)-8-[(S)-(2-amino-propyl)-methylamino]-xanthine] was 2 nM.
Still for that read-out and setting: the value for `CC#CCn1c(N(C)C[C@H](C)N)nc2c1c(=O)n(Cc1ncccc1C#N)c(=O)n2C` [2(11), 1-[(3-cyano-pyridin-2-yl)methyl]-3-methyl-7-(2-butyn-1-yl)-8-[(S)-(2-amino-propyl)-methylamino]-xanthine] was 3 nM.
